Data as given in patent US12012411B2, “Viral replication inhibitors” (Katholieke Universiteit Leuven, priority 2011, dated 2024).
Where two headings read alike, the source gives them in different places.

How the values were obtained:
DENV-2 NGC [1] = test: Antiviral activity against DENV-2 NGC in Vero-B cells (viral RNA load by RT-qPCR); type: cell-based, Dengue virus; details: DENV-2 in Vero-B cells, inhibition of viral RNA replication by 50% (Table 3)
[2] = test system: DENV-1 Djibouti strain D1/H/IMTSSA/98/606; test: Antiviral activity against DENV-1 in Vero-B cells (viral RNA load by RT-qPCR); type: cell-based, Dengue virus
[3] = test system: DENV-3 strain H87 prototype; test: Antiviral activity against DENV-3 in Vero-B cells (viral RNA load by RT-qPCR); type: cell-based, Dengue virus
[4] = test system: DENV-4 strain Dak HD 34 460; test: Antiviral activity against DENV-4 in Vero-B cells (viral RNA load by RT-qPCR); type: cell-based, Dengue virus
[5] = test system: uninfected quiescent Vero-B cells; test: Cytotoxic assay in uninfected quiescent Vero-B cells (MTS/PMS); details: 4 days (Table 3)
DENV-2 NGC [6] = test: Antiviral activity against DENV-2 NGC in A549 cells (viral RNA load by RT-qPCR); type: cell-based; details: Dengue virus, DENV2; DENV-2 in A549 cells (Table 6)
[7] = Cytotoxicity in A549 cells (MTS/PMS); type: cell-based; details: human; A549 cells (Table 6)
Description: A similar protocol was used to assess cytotoxicity in A549 cells with the difference that cells were seeded at 2×10^4 cells/well.

in vitro = details: African green monkey, uninfected quiescent Vero-B cells

Structure (SMILES) | EC50 (DENV-2 NGC [1]) [nM] | EC50 [2] [nM] | EC50 [3] [nM] | EC50 [4] [nM] | CC50 [5] [nM] | EC50 (DENV-2 NGC [1]; Dengue virus, DENV2, Vero B) [nM] | EC50 ([2]; Dengue virus, DENV1, Vero B) [nM] | EC50 ([3]; Dengue virus, DENV3, Vero B) [nM] | EC50 ([4]; Dengue virus, DENV4, Vero B) [nM] | EC50 (DENV-2 NGC [6]) [nM] | CC50 at 4 days [7] [nM] | CC50 at 4 days (in vitro) [nM]
COc1cc(NC(C(=O)c2c[nH]c3ccccc23)c2ccccc2)cc(OC)c1 (single isomer, unassigned) [CPD-327] | 350 | 1420 | 4610 | 2250 | 11000 | – | – | – | – | – | – | –
COc1cccc(NC(C(=O)c2c[nH]c3ccccc23)c2ccc(F)cc2)c1 (stereo not drawn) [CPD-149] | – | – | – | – | 14000 | 30 | 2880 | 4010 | 5720 | – | – | –
COc1cccc(NC(C(=O)c2c[nH]c3ccc(F)cc23)c2ccccc2)c1 (stereo not drawn) [CPD-119] | – | – | – | – | 13000 | 30 | 690 | 1740 | 2910 | – | – | –
COc1cc(CO)cc(NC(C(=O)c2c[nH]c3ccc(F)cc23)c2cccnc2)c1 (stereo not drawn) [CPD-334] | – | – | – | – | – | 70 | 1290 | 810 | 16800 | 24 | 85000 | 122000
COc1cc(NC(C(=O)c2c[nH]c3ccccc23)c2ccc(C)nc2)cc(OC)c1 (stereo not drawn) [CPD-346] | – | – | – | – | – | 10 | – | 40 | 1270 | 8 | 60000 | 54000
COc1cccc(NC(C(=O)c2c[nH]c3cccc(F)c23)c2ccccc2)c1 (stereo not drawn) [CPD-230] | – | – | – | – | 21000 | 120 | 350 | 3530 | 2560 | – | – | –
COc1cc(NC(C(=O)c2c[nH]c3ccccc23)c2ccccc2)cc(OCCO)c1 (stereo not drawn) [CPD-255] | – | – | – | – | – | 40 | 750 | 1660 | 3360 | 29 | 59000 | 63000
COc1cccc(NC(C(=O)c2c[nH]c3ccccc23)c2ccc(C#N)cc2)c1 (stereo not drawn) [CPD-036] | – | – | – | – | 14000 | 40 | 2430 | 3420 | 5850 | – | – | –
COc1cc(NC(C(=O)c2cn(C)c3ccccc23)c2ccccc2)cc(OC)c1 (stereo not drawn) [CPD-338] | – | – | – | – | – | 10 | 350 | 250 | 1820 | 26 | > 124000 | > 124000
COc1cc(CO)cc(NC(C(=O)c2c[nH]c3ccccc23)c2ccccc2)c1 (stereo not drawn) [CPD-262] | – | – | – | – | 71000 | 60 | 2330 | 6730 | 8490 | – | – | –
COc1cccc(NC(C(=O)c2c[nH]c3cc(F)ccc23)c2ccccc2)c1 (stereo not drawn) [CPD-123] | – | – | – | – | 15000 | 50 | 1600 | 2560 | 2640 | – | – | –
COc1cc(NC(C(=O)c2c[nH]c3ccccc23)c2ccc(F)cc2)cc(OC)c1 (stereo not drawn) [CPD-235] | – | – | – | – | 13000 | 4 | 90 | 270 | 3020 | – | – | –
COc1cc(NC(C(=O)c2c[nH]c3ccccc23)c2cnc(OC)cn2)cc(OC)c1 (stereo not drawn) [CPD-294] | – | – | – | – | – | 20 | 230 | 670 | 7210 | 15 | 61000 | 41000
COc1cccc(NC(C(=O)c2c[nH]c3cc(OC)ccc23)c2ccccc2)c1 (stereo not drawn) [CPD-077] | – | – | – | – | 13000 | 40 | 1420 | 2070 | 4270 | – | – | –
COc1cccc(NC(C(=O)c2c[nH]c3ccccc23)c2ccc(C)cc2)c1 (stereo not drawn) [CPD-139] | – | – | – | – | 20000 | 20 | 650 | 460 | 3810 | – | – | –
COc1cccc(NC(C(=O)c2c[nH]c3cccc(Cl)c23)c2ccccc2)c1 (stereo not drawn) [CPD-053] | – | – | – | – | 18000 | 20 | 1640 | 11200 | 7110 | – | – | –
COc1cccc(NC(C(=O)c2c[nH]c3ccccc23)c2ccc(C)nc2)c1 (stereo not drawn) [CPD-226] | – | – | – | – | 73000 | 70 | 920 | 810 | 8640 | – | – | –
COc1cncc(NC(C(=O)c2c[nH]c3ccccc23)c2ccccc2)c1 (single isomer, unassigned) [CPD-300] | 1290 | 5290 | 21100 | 4130 | 50000 | – | – | – | – | – | – | –
COc1cc(NC(C(=O)c2cn(C)c3ccccc23)c2cccnc2)cc(OC)c1 (stereo not drawn) [CPD-360] | – | – | – | – | – | 40 | – | – | 5780 | 27 | > 124000 | > 124000
CCOc1cc(NC(C(=O)c2c[nH]c3ccccc23)c2ccccc2)cc(OC)c1 (stereo not drawn) [CPD-254] | – | – | – | – | 13000 | 20 | 670 | 800 | 1150 | – | – | –
COc1cccc(NC(C(=O)c2c[nH]c3ccccc23)c2cc3ccccn3n2)c1 (single isomer, unassigned) [CPD-324] | 10 | 270 | 190 | – | 30000 | – | – | – | 5320 | – | – | –
COc1cc(NC(C(=O)c2c[nH]c3ccccc23)c2ccccc2)cc(OC)c1 (single isomer, unassigned) [CPD-326] | 1 | 50 | 90 | – | 13000 | – | – | – | 1890 | – | – | –
COc1cccc(NC(C(=O)c2c[nH]c3ccccc23)c2ccsc2)c1 (stereo not drawn) [CPD-027] | – | – | – | – | 15000 | 130 | 2100 | 9900 | 3700 | – | – | –
COc1cccc(NC(C(=O)c2c[nH]c3ccccc23)c2cc3ccccn3n2)c1 (stereo not drawn) [CPD-083] | – | – | – | – | 26000 | 30 | 540 | 710 | 2520 | – | – | –
